Source: ChEMBL document CHEMBL1201862, “PubChem BioAssay data set” (2004)
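Assay format: 96-well plates, 48-hour exposure. GI50 = concentration required for 50% inhibition of growth.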 Active and inactive are the calls of the source. Cut-off read from the data, not from the text of the source: active = GI50 up to about 1.1 µM and inactive = higher.

Columns and labels:
Test in all cases: NCI-60 cell line screen, 48 h
[1] = test system: RPMI-8226
[2] = test system: COLO 205
[3] = test system: SK-MEL-2
[4] = test system: OVCAR-5
[5] = test system: SK-MEL-5
[6] = test system: PC-3
[7] = test system: SK-MEL-28
[8] = test system: A498
[9] = test system: ACHN
[10] = test system: UACC-257
[11] = test system: EKVX
[12] = test system: SNB-19
[13] = test system: HCT-15
[14] = test system: HCT-116
[15] = test system: Malme-3M
[16] = test system: KM12
[17] = test system: MCF7
[18] = test system: OVCAR-4
[19] = test system: RXF 393
[20] = test system: SF-268
[21] = test system: NCI-H460
[22] = test system: NCI/ADR-RES
[23] = test system: 786-0
[24] = test system: Hs-578T
[25] = test system: UACC-62
[26] = test system: MDA-N
[27] = test system: SR
[28] = test system: OVCAR-3
[29] = test system: HL-60
[30] = test system: SK-OV-3
[31] = test system: LOX IMVI
[32] = test system: OVCAR-8
[33] = test system: NCI-H23
[34] = test system: SF-295
[35] = test system: HCC 2998
[36] = test system: SF-539
[37] = test system: NCI-H522
[38] = test system: M14
[39] = test system: DU-145
[40] = test system: SW-620
[41] = test system: MDA-MB-435
[42] = test system: UO-31
[43] = test system: A549
[44] = test system: MDA-MB-231
[45] = test system: HOP-62
[46] = test system: IGROV-1
[47] = test system: SNB-75
[48] = test system: NCI-H226
[49] = test system: K562
[50] = test system: CCRF-CEM
[51] = test system: T47D
[52] = test system: TK-10
[53] = test system: HT-29
[54] = test system: CAKI-1
[55] = test system: SN12C
[56] = test system: MOLT-4
[57] = test system: U-251
[58] = test system: HOP-92

## CCOC(=O)N1c2ccccc2C(C)=CC(C)C1C (configuration not stated)
[1]
  GI50: 56.8 µM (inactive)
[2]
  GI50: 29.2 µM (inactive)
[3]
  GI50: 32.7 µM (inactive)
[4]
  GI50: 40.1 µM (inactive)
[5]
  GI50: 12.5 µM (inactive)
[6]
  GI50: 55.8 µM (inactive)
[7]
  GI50: 35.9 µM (inactive)
[8]
  GI50: 27 µM (inactive)
[9]
  GI50: 49.7 µM (inactive)
[10]
  GI50: 12.7 µM (inactive)
[11]
  GI50: 35.3 µM (inactive)
[12]
  GI50: 42.8 µM (inactive)
[13]
  GI50: 5.36 µM
[14]
  GI50: 6.73 µM (inactive)
[15]
  GI50: 33.9 µM (inactive)
[16]
  GI50: 9.82 µM (inactive)
[17]
  GI50: 10.3 µM (inactive)
[18]
  GI50: 60.5 µM (inactive)
[19]
  GI50: 11.3 µM (inactive)
[20]
  GI50: 38 µM (inactive)
[21]
  GI50: 21.4 µM (inactive)
[22]
  GI50: 25.8 µM (inactive)
[23]
  GI50: 20.6 µM (inactive)
[24]
  GI50: 35.6 µM (inactive)
[25]
  GI50: 32.6 µM (inactive)
[26]
  GI50: 1.32 µM (inactive)
[27]
  GI50: 5.09 µM (inactive)
[28]
  GI50: 16.7 µM (inactive)
[29]
  GI50: 27.2 µM (inactive)
[30]
  GI50: 22.4 µM (inactive)
[31]
  GI50: 7.53 µM (inactive)
[32]
  GI50: 17.6 µM (inactive)
[33]
  GI50: 22.8 µM (inactive)
[34]
  GI50: 23.9 µM (inactive)
[35]
  GI50: 45.6 µM (inactive)
[36]
  GI50: 20.4 µM (inactive)
[37]
  GI50: 18.7 µM (inactive)
[38]
  GI50: 13.6 µM (inactive)
[39]
  GI50: 38.3 µM (inactive)
[40]
  GI50: 29.4 µM (inactive)
[41]
  GI50: 3.37 µM (inactive)
[42]
  GI50: 55.7 µM (inactive)
[43]
  GI50: 22.6 µM (inactive)
[44]
  GI50: 22.9 µM (inactive)
[45]
  GI50: 37.6 µM (inactive)
[46]
  GI50: 44 µM (inactive)
[47]
  GI50: 19.1 µM (inactive)
[48]
  GI50: 22.8 µM (inactive)
[49]
  GI50: 18.9 µM (inactive)
[50]
  GI50: 21.9 µM (inactive)
[51]
  GI50: 52.1 µM (inactive)
[52]
  GI50: 4.55 µM (inactive)
[53]
  GI50: 10.7 µM (inactive)
[54]
  GI50: 16.2 µM (inactive)
[55]
  GI50: 40.7 µM (inactive)
[56]
  GI50: 39.4 µM (inactive)

## CNC(=O)OCc1c(COC(=O)NC)c(C)n(-c2ccc(Br)cc2)c1C
[1]
  GI50: 11 µM (inactive)
[2]
  GI50: 13.4 µM (inactive)
[3]
  GI50: 15.5 µM (inactive)
[4]
  GI50: 12.9 µM (inactive)
[5]
  GI50: 13.6 µM (inactive)
[6]
  GI50: 17.2 µM (inactive)
[7]
  GI50: 16.4 µM (inactive)
[8]
  GI50: 1.36 µM (inactive)
[9]
  GI50: 3.26 µM (inactive)
[10]
  GI50: 15.3 µM (inactive)
[11]
  GI50: 27.3 µM (inactive)
[12]
  GI50: 18.7 µM (inactive)
[13]
  GI50: 14 µM
[14]
  GI50: 10.8 µM (inactive)
[15]
  GI50: 17.6 µM (inactive)
[16]
  GI50: 14.4 µM (inactive)
[17]
  GI50: 11.3 µM (inactive)
[19]
  GI50: 5.37 µM (inactive)
[20]
  GI50: 10.7 µM (inactive)
[21]
  GI50: 8.2 µM (inactive)
[22]
  GI50: 16.3 µM (inactive)
[23]
  GI50: 9.82 µM (inactive)
[24]
  GI50: 16.2 µM (inactive)
[25]
  GI50: 4.89 µM (inactive)
[26]
  GI50: 15.7 µM (inactive)
[27]
  GI50: 1.38 µM (inactive)
[28]
  GI50: 14.6 µM (inactive)
[29]
  GI50: 6.25 µM (inactive)
[30]
  GI50: 10.4 µM (inactive)
[31]
  GI50: 6.24 µM (inactive)
[57]
  GI50: 10.7 µM (inactive)
[32]
  GI50: 12.1 µM (inactive)
[33]
  GI50: 14.3 µM (inactive)
[34]
  GI50: 13.1 µM (inactive)
[35]
  GI50: 15.2 µM (inactive)
[36]
  GI50: 15.4 µM (inactive)
[37]
  GI50: 10.2 µM (inactive)
[38]
  GI50: 13.2 µM (inactive)
[39]
  GI50: 14.3 µM (inactive)
[40]
  GI50: 10.7 µM (inactive)
[41]
  GI50: 16.8 µM (inactive)
[42]
  GI50: 5.57 µM (inactive)
[43]
  GI50: 16.9 µM (inactive)
[44]
  GI50: 13.9 µM (inactive)
[45]
  GI50: 13.2 µM (inactive)
[46]
  GI50: 3.98 µM (inactive)
[47]
  GI50: 4.17 µM (inactive)
[48]
  GI50: 1.24 µM (inactive)
[49]
  GI50: 15.8 µM (inactive)
[50]
  GI50: 4.85 µM (inactive)
[51]
  GI50: 10.2 µM (inactive)
[52]
  GI50: 11 µM (inactive)
[53]
  GI50: 5.57 µM (inactive)
[54]
  GI50: 4.02 µM (inactive)
[58]
  GI50: 7.76 µM (inactive)
[55]
  GI50: 9.16 µM (inactive)
[56]
  GI50: 6.79 µM (inactive)

## COc1cc(C(=O)Oc2c(C(C)=O)sc3c2c(=O)n(-c2ccccc2)c(=S)n3-c2ccccc2)cc(OC)c1OC
[1]
  GI50: 27 µM (inactive)
[2]
  GI50: 15.7 µM (inactive)
[4]
  GI50: 17.5 µM (inactive)
[5]
  GI50: 17.4 µM (inactive)
[6]
  GI50: 18.2 µM (inactive)
[7]
  GI50: 19.2 µM (inactive)
[8]
  GI50: 5.78 µM (inactive)
[9]
  GI50: 16.6 µM (inactive)
[10]
  GI50: 28.1 µM (inactive)
[11]
  GI50: 18.7 µM (inactive)
[12]
  GI50: 24.7 µM (inactive)
[13]
  GI50: 22.2 µM
[14]
  GI50: 18.1 µM (inactive)
[15]
  GI50: 8.17 µM (inactive)
[16]
  GI50: 22.8 µM (inactive)
[17]
  GI50: 19.5 µM (inactive)
[18]
  GI50: 24.5 µM (inactive)
[19]
  GI50: 18.9 µM (inactive)
[20]
  GI50: 24.5 µM (inactive)
[21]
  GI50: 12.6 µM (inactive)
[22]
  GI50: 15.4 µM (inactive)
[23]
  GI50: 19.6 µM (inactive)
[24]
  GI50: 19.4 µM (inactive)
[25]
  GI50: 23.9 µM (inactive)
[26]
  GI50: 22.8 µM (inactive)
[27]
  GI50: > 100 µM (inactive)
[28]
  GI50: 18.2 µM (inactive)
[29]
  GI50: 24.7 µM (inactive)
[30]
  GI50: 31.6 µM (inactive)
[31]
  GI50: 18.7 µM (inactive)
[57]
  GI50: 20.7 µM (inactive)
[32]
  GI50: 18.8 µM (inactive)
[33]
  GI50: 20.2 µM (inactive)
[34]
  GI50: 8.3 µM (inactive)
[35]
  GI50: 24.7 µM (inactive)
[36]
  GI50: 11.6 µM (inactive)
[37]
  GI50: 1.01 µM (active)
[38]
  GI50: 16.9 µM (inactive)
[39]
  GI50: 26.4 µM (inactive)
[40]
  GI50: 25.2 µM (inactive)
[41]
  GI50: 22.5 µM (inactive)
[43]
  GI50: 28.9 µM (inactive)
[44]
  GI50: 25.9 µM (inactive)
[45]
  GI50: 24.4 µM (inactive)
[46]
  GI50: 21 µM (inactive)
[47]
  GI50: 19.8 µM (inactive)
[48]
  GI50: 3.86 µM (inactive)
[49]
  GI50: 33.6 µM (inactive)
[50]
  GI50: 15.3 µM (inactive)
[51]
  GI50: 26.5 µM (inactive)
[52]
  GI50: 38.9 µM (inactive)
[53]
  GI50: 11 µM (inactive)
[54]
  GI50: 33.9 µM (inactive)
[58]
  GI50: 19.3 µM (inactive)
[55]
  GI50: 11.9 µM (inactive)
[56]
  GI50: 25 µM (inactive)

## C=CC1CN(C(=O)OCC)N(C(=O)OCC)C1CCc1ccccc1 (configuration not stated)
[1]
  GI50: 30.9 µM (inactive)
[2]
  GI50: 71.6 µM (inactive)
[3]
  GI50: > 100 µM (inactive)
[4]
  GI50: > 100 µM (inactive)
[5]
  GI50: 64.1 µM (inactive)
[6]
  GI50: 79.1 µM (inactive)
[7]
  GI50: > 100 µM (inactive)
[9]
  GI50: > 100 µM (inactive)
[10]
  GI50: > 100 µM (inactive)
[11]
  GI50: 72.4 µM (inactive)
[12]
  GI50: > 100 µM (inactive)
[13]
  GI50: 65.5 µM
[14]
  GI50: 67.1 µM (inactive)
[15]
  GI50: > 100 µM (inactive)
[16]
  GI50: 71.6 µM (inactive)
[17]
  GI50: 42.2 µM (inactive)
[18]
  GI50: 57.4 µM (inactive)
[20]
  GI50: > 100 µM (inactive)
[21]
  GI50: 74.1 µM (inactive)
[22]
  GI50: 85.1 µM (inactive)
[23]
  GI50: > 100 µM (inactive)
[24]
  GI50: > 100 µM (inactive)
[25]
  GI50: > 100 µM (inactive)
[26]
  GI50: > 100 µM (inactive)
[27]
  GI50: 65.9 µM (inactive)
[29]
  GI50: 35.6 µM (inactive)
[30]
  GI50: > 100 µM (inactive)
[31]
  GI50: > 100 µM (inactive)
[57]
  GI50: > 100 µM (inactive)
[32]
  GI50: > 100 µM (inactive)
[33]
  GI50: 61.9 µM (inactive)
[34]
  GI50: 58.6 µM (inactive)
[35]
  GI50: > 100 µM (inactive)
[37]
  GI50: 39.3 µM (inactive)
[38]
  GI50: > 100 µM (inactive)
[39]
  GI50: > 100 µM (inactive)
[41]
  GI50: > 100 µM (inactive)
[42]
  GI50: 74.1 µM (inactive)
[43]
  GI50: 57.8 µM (inactive)
[44]
  GI50: > 100 µM (inactive)
[45]
  GI50: > 100 µM (inactive)
[46]
  GI50: 81.8 µM (inactive)
[47]
  GI50: 68.9 µM (inactive)
[48]
  GI50: > 100 µM (inactive)
[49]
  GI50: 50.8 µM (inactive)
[50]
  GI50: 72.4 µM (inactive)
[51]
  GI50: 33.3 µM (inactive)
[52]
  GI50: > 100 µM (inactive)
[53]
  GI50: > 100 µM (inactive)
[54]
  GI50: > 100 µM (inactive)
[58]
  GI50: 53.5 µM (inactive)
[55]
  GI50: > 100 µM (inactive)
[56]
  GI50: 31.2 µM (inactive)
